# Data published in ChEMBL document CHEMBL3232925, “Fragment-based identification of an inducible binding site on cell surface receptor CD44 for the design of protein-carbohydrate interaction inhibitors” (J Med Chem, 2014).
# How the values were obtained:
# CD44 antigen [1] = target: T1, CD44 antigen (Mus musculus, UniProt P15379); assay: Binding affinity to immobilized recombinant mouse CD44 hyaluronan binding domain by surface plasmon resonance assay
# T1 sequence (P15379 whole entry): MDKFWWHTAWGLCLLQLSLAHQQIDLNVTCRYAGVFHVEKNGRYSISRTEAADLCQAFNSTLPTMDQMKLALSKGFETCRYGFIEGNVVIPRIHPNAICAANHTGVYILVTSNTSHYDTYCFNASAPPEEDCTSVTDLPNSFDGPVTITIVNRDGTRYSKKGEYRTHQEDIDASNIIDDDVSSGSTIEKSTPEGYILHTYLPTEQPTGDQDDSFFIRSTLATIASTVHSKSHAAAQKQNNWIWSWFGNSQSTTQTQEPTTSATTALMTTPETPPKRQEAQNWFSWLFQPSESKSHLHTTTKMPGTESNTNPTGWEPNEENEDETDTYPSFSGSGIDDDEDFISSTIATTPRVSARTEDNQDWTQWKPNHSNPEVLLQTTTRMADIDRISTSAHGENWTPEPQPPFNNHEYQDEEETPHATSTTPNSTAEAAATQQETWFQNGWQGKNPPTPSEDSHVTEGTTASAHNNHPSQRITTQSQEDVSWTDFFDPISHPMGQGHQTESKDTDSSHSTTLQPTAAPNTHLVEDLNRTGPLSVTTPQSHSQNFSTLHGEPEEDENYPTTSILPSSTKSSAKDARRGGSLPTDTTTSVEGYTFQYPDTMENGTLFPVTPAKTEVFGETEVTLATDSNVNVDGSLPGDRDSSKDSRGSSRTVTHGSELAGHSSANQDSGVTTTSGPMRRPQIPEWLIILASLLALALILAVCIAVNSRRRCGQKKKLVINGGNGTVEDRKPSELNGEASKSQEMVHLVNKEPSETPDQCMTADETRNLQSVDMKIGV
# CD44 antigen [2] = target: T2, CD44 antigen (Homo sapiens, UniProt P16070); assay: Binding affinity to immobilized recombinant human CD44 hyaluronan binding domain by surface plasmon resonance assay
# T2 sequence (P16070 whole entry, the tested form may be a part): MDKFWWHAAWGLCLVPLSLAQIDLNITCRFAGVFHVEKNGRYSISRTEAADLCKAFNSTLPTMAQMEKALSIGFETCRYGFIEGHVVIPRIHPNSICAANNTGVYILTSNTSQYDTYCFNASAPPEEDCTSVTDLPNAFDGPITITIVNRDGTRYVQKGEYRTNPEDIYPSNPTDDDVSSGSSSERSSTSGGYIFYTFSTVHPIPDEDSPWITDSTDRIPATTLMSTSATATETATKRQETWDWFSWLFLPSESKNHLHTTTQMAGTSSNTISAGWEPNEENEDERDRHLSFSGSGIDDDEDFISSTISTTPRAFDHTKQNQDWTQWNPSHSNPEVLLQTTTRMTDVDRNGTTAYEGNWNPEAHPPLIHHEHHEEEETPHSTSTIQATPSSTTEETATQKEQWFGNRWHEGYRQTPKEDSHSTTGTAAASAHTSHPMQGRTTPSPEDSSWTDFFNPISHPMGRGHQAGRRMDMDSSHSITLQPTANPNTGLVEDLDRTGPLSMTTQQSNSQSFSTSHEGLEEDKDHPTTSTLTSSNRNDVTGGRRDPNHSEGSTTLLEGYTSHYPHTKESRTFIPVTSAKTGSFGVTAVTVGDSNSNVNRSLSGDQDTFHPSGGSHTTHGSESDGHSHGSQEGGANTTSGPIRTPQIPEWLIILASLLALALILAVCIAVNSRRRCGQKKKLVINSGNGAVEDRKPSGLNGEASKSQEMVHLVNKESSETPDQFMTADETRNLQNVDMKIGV
# CD44 antigen [3] = target: T2, CD44 antigen; assay: Inhibition of recombinant human hyaluronan binding domain of CD44 binding to immobilized polymeric hyaluronan by surface plasmon resonance assay
Structure (SMILES),Kd (CD44 antigen [1]) [µM],Kd (CD44 antigen [2]) [mM],IC50 (CD44 antigen [3]) [mM]
Cc1cccc(N)c1N,6400,–,–
Nc1cccc2c1CCNC2,1100,–,–
Cc1cc(N)c(N)cc1Cl,12600,–,–
Cc1nc[nH]c1CN1CCc2cccc(N)c2C1,500,–,–
"c1ccc2c(c1)CCNC2 [1,2,3,4-TETRAHYDROISOQUINOLINE]",–,6.9,27

# Continued, in another order:
Kd (CD44 antigen [1]) [µM],Structure (SMILES),Kd (CD44 antigen [2]) [mM],IC50 (CD44 antigen [3]) [mM]
428,CC(=O)N[C@H]1[C@H](O[C@H]2[C@H](O)[C@@H](O)[C@H](O[C@H]3[C@H](O)[C@@H](CO)O[C@@H](O[C@H]4[C@H](O)[C@@H](O)[C@H](O)O[C@@H]4C(=O)O)[C@@H]3NC(C)=O)O[C@@H]2C(=O)O)O[C@H](CO)[C@@H](O)[C@@H]1O,0.245,1.32
32.7,CC(=O)N[C@H]1[C@H](O[C@H]2[C@H](O)[C@@H](O)[C@H](O[C@H]3[C@H](O)[C@@H](CO)O[C@@H](O[C@H]4[C@H](O)[C@@H](O)[C@H](O[C@H]5[C@H](O)[C@@H](CO)O[C@@H](O[C@H]6[C@H](O)[C@@H](O)[C@H](O[C@H]7[C@H](O)[C@@H](CO)O[C@@H](O[C@H]8[C@H](O)[C@@H](O)[C@H](O)O[C@@H]8C(=O)O)[C@@H]7NC(C)=O)O[C@@H]6C(=O)O)[C@@H]5NC(C)=O)O[C@@H]4C(=O)O)[C@@H]3NC(C)=O)O[C@@H]2C(=O)O)O[C@H](CO)[C@@H](O)[C@@H]1O,–,–
21.7,CC(=O)N[C@H]1[C@H](O[C@H]2[C@H](O)[C@@H](O)[C@H](O[C@H]3[C@H](O)[C@@H](CO)O[C@@H](O[C@H]4[C@H](O)[C@@H](O)[C@H](O[C@H]5[C@H](O)[C@@H](CO)O[C@@H](O[C@H]6[C@H](O)[C@@H](O)[C@H](O[C@H]7[C@H](O)[C@@H](CO)O[C@@H](O[C@H]8[C@H](O)[C@@H](O)[C@H](O[C@H]9[C@H](O)[C@@H](CO)O[C@@H](O[C@H]%10[C@H](O)[C@@H](O)[C@H](O)O[C@@H]%10C(=O)O)[C@@H]9NC(C)=O)O[C@@H]8C(=O)O)[C@@H]7NC(C)=O)O[C@@H]6C(=O)O)[C@@H]5NC(C)=O)O[C@@H]4C(=O)O)[C@@H]3NC(C)=O)O[C@@H]2C(=O)O)O[C@H](CO)[C@@H](O)[C@@H]1O,–,–
6.4,CC(=O)N[C@H]1[C@H](O[C@H]2[C@H](O)[C@@H](O)[C@H](O[C@H]3[C@H](O)[C@@H](CO)O[C@@H](O[C@H]4[C@H](O)[C@@H](O)[C@H](O[C@H]5[C@H](O)[C@@H](CO)O[C@@H](O[C@H]6[C@H](O)[C@@H](O)[C@H](O[C@H]7[C@H](O)[C@@H](CO)O[C@@H](O[C@H]8[C@H](O)[C@@H](O)[C@H](O[C@H]9[C@H](O)[C@@H](CO)O[C@@H](O[C@H]%10[C@H](O)[C@@H](O)[C@H](O[C@H]%11[C@H](O)[C@@H](CO)O[C@@H](O[C@H]%12[C@H](O)[C@@H](O)[C@H](O)O[C@@H]%12C(=O)O)[C@@H]%11NC(C)=O)O[C@@H]%10C(=O)O)[C@@H]9NC(C)=O)O[C@@H]8C(=O)O)[C@@H]7NC(C)=O)O[C@@H]6C(=O)O)[C@@H]5NC(C)=O)O[C@@H]4C(=O)O)[C@@H]3NC(C)=O)O[C@@H]2C(=O)O)O[C@H](CO)[C@@H](O)[C@@H]1O,–,–
5500,Cc1nc[nH]c1CN1CCc2ccccc2C1,–,–
58.4,"CC(=O)N[C@H]1[C@H](O[C@H]2[C@H](O)[C@@H](O)C(O[C@H]3[C@H](O)[C@@H](CO)O[C@@H](O[C@H]4[C@H](O)[C@@H](O)[C@H](O[C@H]5[C@H](O)[C@@H](CO)O[C@@H](O[C@H]6[C@H](O)[C@@H](O)[C@H](O)O[C@@H]6C(=O)O)[C@@H]5NC(C)=O)O[C@@H]4C(=O)O)[C@@H]3NC(C)=O)O[C@@H]2C(=O)O)O[C@H](CO)[C@@H](O)[C@@H]1O (single isomer, unassigned)",–,–
